The target in one experiment is T1, human His-PIM2 [23-299] (Homo sapiens, UniProt Q9P1W9).
T1 construct: purified human His-PIM2 [23-299] enzyme; His (N); host or cells: E. coli
The experiment in a line: PIM2 in-vitro mobility shift assay (Caliper LC3000, FL-Ahx-Bad phosphorylation). It counts as biochemical. Particulars: 1.5 h; percent inhibition at 0.3 uM compound; read-out: PIM2 % I at 0.3 uM. An excerpt:
PIM2 In-Vitro Mobility Shift Assay
One may determine the activity of purified human His-PIM2 [23-299] enzyme in-vitro using a mobility shift assay on a Caliper LC3000 reader (Caliper, Mass.), which measures fluorescence of a phosphorylated and unphosphorylated FL-Ahx-Bad (FITC-(AHX)RSRHSSYPAGT-COOH, Primm 200606-00289, Primm Biotech, Mass.) and calculates a ratiometric value to determine percent turnover. One may express PIM2 (produced at AstraZeneca, R&D Boston) in E. coli cells with a typical yield of >90% purity.
One determines phosphorylation of the FL-Ahx-Bad in the presence and absence of the compound of interest. One preincubates 5 uL of Enzyme/Substrate/adenosine triphosphate (ATP) mix consisting of 2.4 nM […], 3.6 uM FL-Ahx-Bad, and 12 uM ATP in 1.2× buffer with 2 ul of compound for 20 minutes at 25° C. One initiates reactions with 5 uL of Metal mix consisting of 24 mM MgCl2 in 1.2× buffer and incubates at 25° C. for 90 minutes. One stops reactions by addition of 5 uL of Stop mix consisting of 100 mM HEPES, 121 mM ethylenediamine tetraacetic acid, 0.8% Coatin Reagent 3 (Caliper, Mass.), and 0.01% Tween. One detects phosphorylated and unphosphorylated substrate by a Caliper LC3000 reader (Caliper, Mass.) in the presence of separation buffer consisting of 100 mM HEPES, 16 mM ethylenediamine tetraacetic acid, 0.1% Coatin Reagent 3 (Caliper, Mass.), 0.015% Brij-35, 5% DMSO, and 5.6 mM MgCl2. One may use the following separation conditions for a Caliper LC3000: −1.0 PSI, −2000 V upstream voltage, −400 V downstream voltage, 0.2 second sample sip, 45 second post sip, 10% laser strength.

Another experiment concerns the target T2, human His-PIM1 [2-313] (Homo sapiens, UniProt P11309).
T2 construct: purified human His-PIM1 [2-313] enzyme; His (N); purchased University of Dundee, Scotland; host or cells: baculovirus system
In words: PIM1 in-vitro mobility shift assay (Caliper LC3000, FL-Ahx-Bad phosphorylation). In kind it is biochemical. Conditions: 1.5 h; percent inhibition at 0.3 uM compound; read-out: PIM1 % I at 0.3 uM. An excerpt: PIM1 In-Vitro Mobility Shift Assay
One may determine the activity of purified human His-PIM1 [2-313] enzyme in-vitro using a mobility shift assay on a Caliper LC3000 reader (Caliper, Mass.), which measures fluorescence of a phosphorylated and unphosphorylated FL-Ahx-Bad (FITC-(AHX)RSRHSSYPAGT-COOH, Primm 200606-00289, Primm Biotech, Mass.) and calculates a ratiometric value to determine percent turnover. One may express PIM1 (University of Dundee, Scotland) in baculovirus system with a typical yield of >85% purity.
One determines phosphorylation of the FL-Ahx-Bad in the presence and absence of the compound of interest. One preincubates 5 µl of Enzyme/Substrate/adenosine triphosphate (ATP) mix consisting of 2.4 nM PIM1, 3.6 uM FL-Ahx-Bad, and 240 uM ATP in 1.2× buffer with 2 ul of compound for 20 minutes at 25° C. One initiates reactions with 5 ul of Metal mix consisting of 24 mM MgCl2 in 1.2× buffer and incubated at 25° C. for 90 minutes and stops the reactions by addition of 5 ul of Stop mix consisting of 100 mM HEPES, 121 mM ethylenediamine tetraacetic acid, 0.8% Coatin Reagent 3 (Caliper, Mass.), and 0.01% Tween. One detects phosphorylated and unphosphorylated substrate by a Caliper LC3000 reader (Caliper, Mass.) in the presence of separation buffer consisting of 100 mM HEPES, 16 mM ethylenediamine tetraacetic acid, 0.1% Coatin Reagent 3 (Caliper, Mass.), 0.015% Brij-35, 5% DMSO, and 5.6 mM MgCl2. One may use the following separation conditions for a Caliper LC3000: −1.0 PSI, −2000 V upstream voltage, −400 V downstream voltage, 0.2 second sample sip, 45 second post sip, 10% laser strength.
The table 1 below provides the percent inhibition of PIM1 at 0.3 micromolar for Examples provided herein. Several examples were tested more than once. Variations in the experimental outcomes, negative values, or values over 100% inhibition are presumably due to experimental error inherent in the assay.

The structures appear in SMILES notation. Structures can show the parent of a compound that is named as a salt. Some results are limits rather than exact numbers.

T1 sequence (Q9P1W9 23-299): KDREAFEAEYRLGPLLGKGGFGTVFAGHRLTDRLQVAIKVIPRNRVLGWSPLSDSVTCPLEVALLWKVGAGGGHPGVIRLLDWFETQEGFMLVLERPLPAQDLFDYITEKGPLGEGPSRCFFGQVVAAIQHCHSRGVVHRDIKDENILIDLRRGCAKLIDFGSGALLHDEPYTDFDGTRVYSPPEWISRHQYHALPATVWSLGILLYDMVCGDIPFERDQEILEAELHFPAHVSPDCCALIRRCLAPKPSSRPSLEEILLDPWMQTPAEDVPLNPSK
T2 sequence (P11309 2-313): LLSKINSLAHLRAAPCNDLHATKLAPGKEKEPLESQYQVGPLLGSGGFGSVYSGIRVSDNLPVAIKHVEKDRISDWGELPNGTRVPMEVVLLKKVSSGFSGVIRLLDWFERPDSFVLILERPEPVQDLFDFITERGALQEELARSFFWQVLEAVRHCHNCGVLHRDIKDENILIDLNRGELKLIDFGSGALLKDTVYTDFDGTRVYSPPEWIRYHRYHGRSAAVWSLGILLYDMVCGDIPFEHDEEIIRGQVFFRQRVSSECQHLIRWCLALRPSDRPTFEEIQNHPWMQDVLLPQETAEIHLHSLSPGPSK

As for `O=C1NC(=O)/C(=C/c2cc(C(F)(F)F)cc(Cl)c2N2CCN(CCO)CC2)S1` [Example 28], the inhibition at 0.3 µM at human His-PIM2 [23-299] came to 27.4%; at human His-PIM1 [2-313], 90%.
For `CC(C)(C)N1CCN(c2c(Cl)cc(C(F)(F)F)cc2/C=C2\SC(=O)NC2=O)CC1` [Example 30], the inhibition at 0.3 µM on human His-PIM2 [23-299] worked out at 15.6%; at human His-PIM1 [2-313], 90.8%.
On the same counts, the results for `O=C1NC(=O)/C(=C/c2cc(C(F)(F)F)cc(Cl)c2N2CCC(N3CCCCC3)CC2)S1` [Example 31] are 23.3% and 92.8%.
Take `CN1CCN(c2c(Cl)cc(C(F)(F)F)cc2/C=C2\SC(=O)NC2=O)CC1` [Example 32]: the inhibition at 0.3 µM at human His-PIM2 [23-299] worked out at 31.9%; at human His-PIM1 [2-313], 94%.
As for `CN(C)[C@H]1CCN(c2c(Br)cccc2/C=C2\SC(=O)NC2=O)C1` [Example 33, (S,Z)-5-(3-bromo-2-(3-(dimethylamino)pyrrolidin-1-yl)benzylidene)thiazolidine-2,4-dione hydrochloride], the inhibition at 0.3 µM on human His-PIM2 [23-299] and at human His-PIM1 [2-313] was above 95% throughout.
On to `C[C@@H]1CN(c2ccc(C(F)(F)F)cc2/C=C2\SC(=O)NC2=O)C[C@H](C)N1` [Example 34, (Z)-5-(2-((3S,5R)-3,5-dimethylpiperazin-1-yl)-5-(trifluoromethyl)benzylidene)thiazolidine-2,4-dione hydrochloride], for which the inhibition at 0.3 µM is 39.3% on human His-PIM2 [23-299] and above 95% on human His-PIM1 [2-313].
On to `COc1cccc(/C=C2\SC(=O)NC2=O)c1N1C[C@@H](C)N[C@@H](C)C1` [Example 35, (Z)-5-(2-((3S,5R)-3,5-dimethylpiperazin-1-yl)-3-methoxybenzylidene)thiazolidine-2,4-dione], for which the inhibition at 0.3 µM at human His-PIM2 [23-299] and at human His-PIM1 [2-313] was below 5% each time.
With `COc1cccc(/C=C2\SC(=O)NC2=O)c1N1CC[C@H](N(C)C)C1` [Example 36, (S,Z)-5-(2-(3-(dimethylamino)pyrrolidin-1-yl)-3-methoxybenzylidene)thiazolidine-2,4-dione], the inhibition at 0.3 µM at human His-PIM2 [23-299] and on human His-PIM1 [2-313] was above 95% each time.
For `C[C@@H]1CN(c2c(Cl)cccc2/C=C2\SC(=O)NC2=O)C[C@H](C)N1` [Example 37, (Z)-5-(3-chloro-2-((3S,5R)-3,5-dimethylpiperazin-1-yl)benzylidene)thiazolidine-2,4-dione], the inhibition at 0.3 µM came to 69.4% at human His-PIM2 [23-299] and 89.7% on human His-PIM1 [2-313].
In the same order, the values of `CN(C)[C@H]1CCN(c2c(Cl)cccc2/C=C2\SC(=O)NC2=O)C1` [Example 38, (S,Z)-5-(3-chloro-2-(3-(dimethylamino)pyrrolidin-1-yl)benzylidene)thiazolidine-2,4-dione] are 92.9% and above 95%.
Turning to `COc1cc(/C=C2\SC(=O)NC2=O)c(N2CC[C@@H](N(C)C)C2)cc1OC` [Example 39, (R,Z)-5-(2-(3-(dimethylamino)pyrrrolidin-1-yl)-4,5-dimethoxybenzylidene)thiazolidine-2,4-dione], the inhibition at 0.3 µM at human His-PIM2 [23-299] was 57.3%; at human His-PIM1 [2-313], 89.4%.
In the same order, the values of `COc1cc(/C=C2\SC(=O)NC2=O)c(N2CC[C@H](N(C)C)C2)cc1OC` [Example 40, (S,Z)-5-(2-(3-(dimethylamino)pyrrolidin-1-yl)-4,5-dimethoxybenzylidene)thiazolidine-2,4-dione] are 89.8% and above 95%.
In the same order, the values of `COc1cc(/C=C2\SC(=O)NC2=O)c(N2CCC(CO)CC2)cc1OC` [Example 41, (5Z)-5-{2-[4-(hydroxymethyl)piperidin-1-yl]-4,5-dimethoxybenzylidene}-1-,3-thiazolidine-2,4-dione] are 25.1% and 74%.
In the same order, the values of `COc1cc(/C=C2\SC(=O)NC2=O)c(N2CCC(O)CC2)cc1OC` [Example 42, (5Z)-5-[2-(4-hydroxypiperidine-1-yl)-4,5-dimethoxybenzylidene]-1,3-thiazolidine-2,4-dione] are 23.3% and 58.8%.
With `COc1ccc(N2CCC(N(C)C)C2)c(/C=C2\SC(=O)NC2=O)c1` (stereo not drawn) [Example 43, (5Z)-5-{2-[3-(dimethylamino)pyrrolidin-1-yl]-5-methoxybenzylidene}-1,3-thiazolidine-2,4-dione], the inhibition at 0.3 µM at human His-PIM2 [23-299] came to 14.7%; at human His-PIM1 [2-313] it was 55.4%.
`COc1ccc(N2CCC(N(C)C)CC2)c(/C=C2\SC(=O)NC2=O)c1` [Example 44, (5Z)-5-{2-[4-(dimethylamino)piperidin-1-yl]-5-methoxybenzylidene}-1,3-thiazolidine-2,4-dione]: the inhibition at 0.3 µM on human His-PIM2 [23-299] is 46.7%; on human His-PIM1 [2-313], 83.8%.
Turning to `COc1cc(/C=C2\SC(=O)NC2=O)c(N2CCC(O)C2)cc1OC` (stereo not drawn) [Example 45, (5Z)-5-[2-(3-hydroxypyrrolidin-1-yl)-4,5-dimethoxybenzylidene]-1,3-thiazolidine-2,4-dione], the inhibition at 0.3 µM on human His-PIM2 [23-299] came to 14.3%; at human His-PIM1 [2-313] it was 40.1%.
As for `COc1cc(/C=C2\SC(=O)NC2=O)c(N2CCCC2)cc1OC` [Example 46, (5Z)-5-(4,5-dimethoxy-2-pyrrolidin-1-ylbenzylidene)-1,3-thiazolidine-2,4-dione], the inhibition at 0.3 µM at human His-PIM2 [23-299] is 15.7%; on human His-PIM1 [2-313], 13.4%.
As for `CN(C)CCN(C)c1ccccc1/C=C1\SC(=O)NC1=O` [Example 47, (5Z)-5-{2-[[2-(dimethylamino)ethyl](methyl)amino]benzylidene}-1,3-thiazolidine-2,4-dione], the figures for the inhibition at 0.3 µM at human His-PIM2 [23-299] and at human His-PIM1 [2-313] were 26.3% and 50%, respectively.
In the case of `CN(C)C1CCN(c2ccccc2/C=C2\SC(=O)NC2=O)C1` (stereo not drawn) [Example 48, (5Z)-5-{2-[3-(dimethylamino)pyrrolidin-1-yl]benzylidene}-1,3-thiazolidine-2,4-dione], the values for the inhibition at 0.3 µM on human His-PIM2 [23-299] and at human His-PIM1 [2-313] were 41.3% and 84.4%, respectively.
Consider `CN(C)C1CCN(c2ccccc2/C=C2\SC(=O)NC2=O)CC1` [Example 49, (5Z)-5-{2-[4-(dimethylamino)piperidin-1-yl]benzylidene}-1,3-thiazolidine-2,4-dione], for which the inhibition at 0.3 µM was 86.3% on human His-PIM2 [23-299] and above 95% on human His-PIM1 [2-313].
With `CC(C)N1CCN(c2ccccc2/C=C2\SC(=O)NC2=O)CC1` [Example 50, (5Z)-5-[2-(4-isopropylpiperazin-1-yl)benzylidene]-1,3-thiazolidine-2,4-dione], the inhibition at 0.3 µM came out at 45.4% at human His-PIM2 [23-299] and 93.7% on human His-PIM1 [2-313].
On to `COc1cc(/C=C2\SC(=O)NC2=O)c(N(C)CCN(C)C)cc1OC` [Example 51, (5Z)-5-{2-[[2-(dimethylamino)ethyl](methyl)amino]-4,5-dimethoxybenzylidene}-1,3-thiazolidine-2,4-dione], for which the inhibition at 0.3 µM at human His-PIM2 [23-299] was 80.6%; on human His-PIM1 [2-313], 85.5%.
In the case of `COc1cc(/C=C2\SC(=O)NC2=O)c(N2CCC(N(C)C)C2)cc1OC` (stereo not drawn) [Example 52, (5Z)-5-{2-[4-(dimethylamino)pyrrolidin-1-yl]-4,5-dimethoxybenzylidene}-1,3-thiazolidine-2,4-dione], the inhibition at 0.3 µM at human His-PIM2 [23-299] was 93.5%; at human His-PIM1 [2-313], above 95%.

The values above are taken from US8901307B2, “Chemical compounds 251” (AstraZeneca AB, priority 2008, dated 2014).
